Laboratory results from US8609162B2, “Integrated neuromodulation system for mood enhancement of a living human subject” (priority 2012, dated 2013).

How the values were obtained:
[1] = system: normal, healthy volunteers; test: clinical trial of subjective mood enhancement after ingestion of the prepared beverage, eight test groups; format: in vivo, human; details: for duration of effect: following ingestion of the prepared beverage; for Score, subjective feeling of mood enhancement: scale of 0 (no change) to 10 (euphoric), N=10 per group, oral solution in 125 mL juice, 10 day period; for mood effect as described: subjective report in words
Description: A set of clinical trials were performed using the median dosing of a ‘typical formulation’ in randomly selected normal, healthy volunteers ranging from 14 to 80 years (mean age 44.5 years) greater than 50 kg body weight over a 10 day period. At the end of the clinical trial, subjects were asked to subjectively rate the feeling of mood enhancement, ranging from a scale of 0 (no change) to 10 (euphoric) and to rate the duration of effect (in hours) following ingestion of the prepared beverage. Members also were encouraged to report any side effects, if any.
Eight different test groups of ten human subjects each (N=10) were devised as follows:
Test Group 1: Oral solution containing 125 mL juice (7% carbohydrate), 3 times daily. This formulation represents placebo.
(§1) Test Group 2: L-Phenylalanine, 800 mg and mucina pruriens, 15% L-DOPA, 200 mg oral solution in 125 mL juice (containing 7% carbohydrate), 3 times daily. This nootropic formulation affects the following neurotransmitter systems: dopamine agonist, a stimulant. The type number ratio is 2:0:0:0:0 to produce a ΔN=+2. This agent fails the test for producing predictable mood enhancement because it is has an imbalanced type number ratio, resulting in a net stimulatory effect (ΔN=+2), and producing a predictable mood over stimulation.
as §1, with “3: Phenylethylamine hydrochloride, 400” for “2: L-Phenylalanine, 800 mg and mucina pruriens, 15% L-DOPA, 200”, “single dose.” for “3 times daily.”, “1:0:0:0:0” for “2:0:0:0:0”, “ΔN=+1.” for “ΔN=+2.”, “(ΔN=+1),” for “(ΔN=+2),”
(§2) Test Group 4: Dimethylaminoethanol bitartrate, 300 mg oral solution in 125 mL juice (containing 7% carbohydrate), 3 times daily. This nootropic formulation affects the following neurotransmitter systems: acetylcholine agonist, an inhibitor. The type number ratio is 0:1:0:0:0 to produce a ΔN=−1. This agent fails the test for producing predictable mood enhancement because it is has an imbalanced type number ratio, resulting in a net inhibitory effect (ΔN=−1), and producing a predictable mood suppression.
as §2, with “5: S-Adenosyl-methionine tosylate disulfate,” for “4: Dimethylaminoethanol bitartrate,”, “serotonin” for “acetylcholine”, “0:0:1:0:0” for “0:1:0:0:0”
as §1, with “6: Anhydrous caffeine, 80” for “2: L-Phenylalanine, 800 mg and mucina pruriens, 15% L-DOPA, 200”, “adenosine antagonist,” for “dopamine agonist,”, “0:0:0:0:1” for “2:0:0:0:0”, “ΔN=+1.” for “ΔN=+2.”, “(ΔN=+1),” for “(ΔN=+2),”
as §2, with “7: L-Theanine, 200” for “4: Dimethylaminoethanol bitartrate, 300”, “GABA” for “acetylcholine”, “0:0:0:1:0” for “0:1:0:0:0”, “suppression. […]” for “suppression.”

[2] = doses as low as; cited from earlier work

CCNC(=O)CC[C@H](N)C(=O)O [Test Group 7, L-Theanine]
duration of effect [1]: 3 h
side effects reported ([1]; human, in vivo): No side effects reported
Score, subjective feeling of mood enhancement [1]: 6.5
mood effect as described [1]: very calm, sedative-like effect

Cn1c(=O)c2c(ncn2C)n(C)c1=O [Test Group 6, Anhydrous caffeine]
side effects reported ([1]; 10 subjects per group): No side effects reported
duration of effect [1]: 2 h
Score, subjective feeling of mood enhancement [1]: 3.0
mood effect as described [1]: felt alert

S-Adenosyl-methionine tosylate disulfate [Test Group 5]
side effects reported ([1]; 10 subjects per group): No side effects reported
duration of effect [1]: 3 h
Score, subjective feeling of mood enhancement [1]: 6.0
mood effect as described [1]: better mood
mood effect as described ([1]; listed as S-adenosyl-methionine tosylate disulfate): moderate mood enhancement

CCN(CC)C(=O)[C@@H]1C=C2c3cccc4[nH]cc(c34)C[C@H]2N(C)C1 [LSD]
dose producing hallucinogenic and entheogenic effects [2]: 30 to 40 µg

Dimethylaminoethanol bitartrate [Test Group 4]
side effects reported ([1]; 10 subjects per group): headache in 1 of 10 subjects
duration of effect [1]: less than 1 hours
Score, subjective feeling of mood enhancement [1]: 2.0
mood effect as described [1]: mild effect

Cl.NCCc1ccccc1 [Test Group 3, Phenylethylamine hydrochloride]
side effects reported ([1]; 10 subjects per group): flushing in 4 of 10 subjects
duration of effect [1]: less than 30 minutes
Score, subjective feeling of mood enhancement [1]: 7.5
mood effect as described ([1]; hydrochloride): temporary euphoric feeling
mood effect as described ([1]; listed as Phenylethyamine hydrochloride, hydrochloride): noticeable but short-term effect
